Data taken from PubChem BioAssay (NCI).
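48-hour exposure; five concentrations; linearly interpolated endpoints. TGI marks complete inhibition of growth.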

Assays:
Experiment in all cases: NCI tumour cell line growth inhibition, 48 h
OVCAR-5 ovarian = tested on: OVCAR-5 ovarian
PC-3 prostate = tested on: PC-3 prostate
LOX IMVI melanoma = tested on: LOX IMVI melanoma
EKVX NSCLC = tested on: EKVX NSCLC
KM20L2 colon = tested on: KM20L2 colon
NCI/ADR-RES ovarian = tested on: NCI/ADR-RES ovarian
HL-60(TB) leukemia = tested on: HL-60(TB) leukemia
DU-145 prostate = tested on: DU-145 prostate
SR leukemia = tested on: SR leukemia
HOP-18 NSCLC = tested on: HOP-18 NSCLC
NCI-H460 lung = tested on: NCI-H460 lung

Row | Compound | TGI (OVCAR-5 ovarian) [µM] | TGI (PC-3 prostate) [µM] | TGI (LOX IMVI melanoma) [µM] | TGI (EKVX NSCLC) [µM] | TGI (KM20L2 colon) [µM] | TGI (NCI/ADR-RES ovarian) [µM] | TGI (HL-60(TB) leukemia) [µM] | TGI (DU-145 prostate) [µM] | TGI (SR leukemia) [µM] | TGI (HOP-18 NSCLC) [µM] | TGI (NCI-H460 lung) [µM]
1 | CCC1(OC(=O)CN2CCN(CCO)CC2)C(=O)OCc2c1cc1n(c2=O)Cc2cc3ccccc3nc2-1 (centres undefined) | 7.6 | > 100 | 1.58 | 55.9 | 7.46 | 7.99 | 3.24 | 2.24 | 0.305 | 25.8 | 0.971
2 | CCOc1ccc(N2C(=O)C3c4[nH]c5ccccc5c4C4CCC(C(C)(C)C)CC4C3C2=O)cc1 (centres undefined) |  |  |  | > 100 | > 100 |  | > 100 |  | > 100 | > 100 | 
3 | COC(=O)C1Cc2ccc(C)cc2C1=O (centres undefined) | > 100 | > 100 | > 100 | > 100 |  | > 100 | > 100 | > 100 | > 100 |  | > 100
4 | Cc1cn(CC2=NCCN2)c(=O)[nH]c1=O | > 100 | > 100 | > 100 | > 100 |  | > 100 | > 100 | > 100 | > 100 |  | > 100
5 | Clc1ccccc1/C=C/c1nsc(/C=C/c2ccccc2Cl)n1 | > 100 | > 100 | > 100 | > 100 |  | > 100 | 52.5 | > 100 | 55.6 |  | 46.4
6 | Cc1nc(-c2ccccc2)c(C)n2c1nc1ccccc12 | > 100 | > 100 | > 100 | > 100 |  | 69.7 | 44.4 | > 100 | 56.2 |  | 63.3
7 | COC(=O)C1Cc2c([nH]c3ccccc23)C(c2cccc(O)c2)N1 (centres undefined) | 82.9 | 80.3 | > 100 | > 100 |  | 49.2 | 48.2 | 55.3 | 76.1 |  | 62
8 | CC(C)Nc1[nH]c(C(=O)c2ccccc2)c(N)c1C(=S)Nc1ccccc1 | > 100 | > 100 | 80.4 | > 100 |  | > 100 | > 100 | > 100 | > 100 |  | > 100
9 | O=C(c1ccc(Cl)cc1Cl)N(Cc1cccnc1)C(=S)N(Cc1cccnc1)C(=O)c1ccc(Cl)cc1Cl | 23.2 | 7.55 | 16.7 | 30.2 |  | 76 | 15.3 | 13 | > 100 |  | 39.2
10 | CCOC(=O)c1ncoc1[C@H]1COC(C)(C)O1 | > 100 |  | > 100 | > 100 | > 100 |  | > 100 |  | > 100 | > 100 | > 100
11 | N#Cc1cccc(C2ON=C(c3ccc([N+](=O)[O-])cc3)N2C23CC4CC(CC(C4)C2)C3)c1 (centres undefined) | 31 | > 100 | > 100 | > 100 |  | > 100 | > 100 | > 100 | > 100 |  | > 100
12 | O=C1C=C(N2CCCC2)C=C(N2CCCC2)C1 | > 100 |  | > 100 | > 100 | > 100 |  | > 100 |  | > 100 | > 100 | > 100
13 | CCN(CC)CCNC(=O)c1ccc([N+](=O)[O-])cc1OC | > 100 |  | > 100 | > 100 | > 100 |  | > 100 |  | > 100 |  | > 100
14 | COC(=O)c1ccc2c(c1)CC1(C2)Cc2cc3c(c(C(=O)OC)c2C1)CCCC3 (centres undefined) | > 100 | > 100 | > 100 | > 100 |  | > 100 | > 100 | > 100 | > 100 |  | > 100
15 | Cc1cc(C)c(S(=O)(=O)N[C@@H](/C=C(\Br)CO)C(C)C)c(C)c1 | > 100 | 48.9 | 36.3 | > 100 |  | > 100 | 40.3 | > 100 | 68.8 |  | 85.4
16 | O=C(O)C(Cc1ccc2c(c1)CCC2)(Cc1ccc2c(c1)CCC2)C(=O)O | > 100 | > 100 | > 100 | > 100 |  | > 100 | > 100 | > 100 | > 100 |  | > 100
17 | CCOc1cc(/C=N\N(C)C)cc(/C=N\N(C)C)c1O | > 100 | > 100 | 79.5 | > 100 |  | > 100 | > 100 | > 100 | > 100 |  | > 100

Row | Compound | TGI (OVCAR-5 ovarian) [µM] | TGI (PC-3 prostate) [µM] | TGI (LOX IMVI melanoma) [µM] | TGI (EKVX NSCLC) [µM] | TGI (KM20L2 colon) [µM] | TGI (NCI/ADR-RES ovarian) [µM] | TGI (HL-60(TB) leukemia) [µM] | TGI (DU-145 prostate) [µM] | TGI (SR leukemia) [µM] | TGI (HOP-18 NSCLC) [µM] | TGI (NCI-H460 lung) [µM]
18 | CN(C)CCN1C(=O)CC[C@@]2(C)C1=CC[C@@H]1[C@@H]2CC[C@@]2(C)[C@H]1CC[C@]2(C)O | > 100 | > 100 | > 100 | > 100 |  | > 100 | > 100 | > 100 | > 100 |  | > 100
19 | O=C(NCCN1C(=O)CN=C(c2ccc(Cl)cc2)c2cc(Cl)ccc21)OCc1ccccc1 | 49.7 | 28.3 | 33.9 | 66.6 |  | 35.7 | 38.1 | 37.7 | 33.3 |  | 32.4
20 | Cc1cc(S(N)(=O)=O)c(SCc2nc(N)nc(N(C)C)n2)cc1Cl | > 10 | > 10 | > 10 | > 10 |  | > 10 | > 10 | > 10 | > 10 |  | > 10
21 | O=C1Nc2cccc3ncn(c23)C2=C1CCCC2 | > 100 |  | > 100 | > 100 | > 100 |  | > 100 |  | > 100 | 83.8 | > 100
22 | COc1cc2c(cc1OC)C1Cc3ccccc3CCN1CC2 (centres undefined) | > 100 | > 100 | > 100 | > 100 |  | > 100 | > 100 | > 100 | > 100 |  | > 100
23 | CC(C)(C)c1cc(C(=O)/C=C/c2ccc(O)c(O)c2O)cc(C(C)(C)C)c1O | 39.1 | 15.7 | 24.3 | 54 |  | 14.8 | 5.82 | 35.6 | 4.67 |  | 6.56
24 | CC12CC3CC/C(=N\O)C(C1)C3(N1CCOCC1)C/C2=N/O (centres undefined) | > 100 | > 100 | > 100 | > 100 |  | > 100 | > 100 | > 100 | > 100 |  | > 100
25 | O/N=c1/ccn(O)c2ccccc12 | 14.7 | 8.88 | 5.67 | 11.2 |  | 4.7 | 8.8 | 7.76 | 55.8 |  | 3.67
26 | O=C1CC2CC=C[C@H]3c4cc5c(cc4C(=O)N1C23)OCO5 (some centres undefined) |  |  | > 50 | > 50 | > 50 |  | > 50 |  |  |  | > 50
27 | Cc1cccc(/C=N/NC(=S)NCc2ccccn2)n1 | > 100 | > 100 | > 100 | > 100 |  | > 75.4 | > 100 | > 100 | > 100 |  | > 100
28 | CCOC(=O)c1cccc(NC(=O)CBr)c1 | 3.28 | 2.94 | 0.407 | 3.47 |  | 4.39 | 3.58 | 3.39 | 0.521 |  | 3.46
29 | N#Cc1ncn(-c2ccccc2)c1N | > 100 | > 100 | > 100 | > 100 |  | > 100 | > 100 | > 100 | > 100 |  | > 100
30 | COc1ccc(NC(=O)CC(=O)n2nc(C)c(N=Nc3ccc(C)c(C)c3)c2C)cc1 | > 100 | > 100 | > 100 | 52 |  | > 100 | > 100 | > 100 | > 100 |  | > 100
31 | Cc1cc2nc(N3C(=O)/C(=C/c4cccc([N+](=O)[O-])c4)N=C3c3ccccc3)sc2cc1C | > 100 | 56.5 | 55.8 | 94.3 |  | > 100 | 54.5 | > 100 | 35.1 |  | > 100
32 | O=C(O)C(CS)NCc1c2ccccc2[n+]([O-])c2ccccc12 (centres undefined) | > 100 |  | > 100 | > 100 | > 100 |  | 57 |  |  | > 100 | > 100
33 | COc1cc(N(CCC#N)CCC#N)ccc1/C(N=Nc1ccc(C)cc1)=N/NC(=O)c1cc(Br)ccc1O | > 100 | 66.5 | 59 | 66.7 |  | > 100 | 40.9 | 94.7 | 76.3 |  | 54.4
